This note sets out measurements from ChEMBL document CHEMBL5120926, “Isolation and Synthesis of Azuriaplysins A and B, Bromoditerpenes with an α-Methylene Carbonyl from the Sea Hare Aplysia kurodai” (J Nat Prod, 2022).

This assay concerns HeLa S3. Briefly: Cytotoxicity against human HeLa S3 cells assessed as inhibition of cell growth incubated for 72 hrs by MTT assay. The format is functional, cell-based.

One may read the IC50 as the midpoint of a concentration-inhibition curve.

In the case of `C=C(C=O)CC[C@@H]1[C@@]2(C)CC[C@H](Br)C(C)(C)[C@@H]2CC[C@@]1(C)O` (stereo in doubt; form 1), the IC50 (hela s3) turned out to be 40 µM. Regarding `C=C(CC[C@@H]1[C@@]2(C)CC[C@H](Br)C(C)(C)[C@@H]2CC[C@@]1(C)O)C(=O)CO` (stereo in doubt; form 1), the IC50 (Homo sapiens, HeLa S3, 72 h) is 8.1 µM. In the case of `C=C(C=O)CC[C@@H]1[C@@]2(C)CC[C@H](Br)C(C)(C)[C@@H]2CC[C@@]1(C)O` (stereo in doubt; form 3), the IC50 (hela s3) worked out at 14 µM. Consider `C=C(CC[C@@H]1[C@@]2(C)CC[C@H](Br)C(C)(C)[C@@H]2CC[C@@]1(C)O)C(=O)CO` (stereo in doubt; form 2), for which the IC50 (hela s3) was determined as 5.2 µM.

In the case of `C=C(C=O)CC[C@@H]1[C@@]2(C)CC[C@H](Br)C(C)(C)[C@@H]2CC[C@@]1(C)O` (stereo in doubt; form 2), the IC50 (hela s3) was found to be 24 µM.

Regarding `C=C(CC[C@@H]1[C@@]2(C)CC[C@H](Br)C(C)(C)[C@@H]2CC[C@@]1(C)O)C(=O)CO` (stereo in doubt; form 3), the IC50 (hela s3) is 4.1 µM.
